For 9 molecules, IC50 results are on record in patent US8759536B2, “Rhodanine derivatives, method for preparing same, and pharmaceutical composition for the prevention or treatment of aids containing the rhodanine derivatives as active ingredients” (Avixgen Inc., priority 2010, dated 2014).

Structures are written as SMILES.

The test concerns HIV. Description: Assay for inhibitory activity against HIV (p24 ELISA, infected MT-4 cells). The settings on record: Human immunodeficiency virus 1, MT4; MT-4 cells infected with pNL4-3-derived HIV; p24 ELISA after 48 + 48 hrs; read-out: Conc. for Inhibition of HIV Activity (IC50). The class given is cell-based. The method, then:
The rhodanine derivatives of the present invention were assayed for inhibitory activity against HIV as follows.
A pNL4-3 vector carrying an HIV genome was transduced into 293FT cells. […] 293FT cells were seeded at a density of 3.0×10^5 cells/well into 6-well plates containing antibiotic-free DMEM supplemented with 10% FBS and grown for 48 hrs. Upon 90-95% confluency, the transduction was performed.
The DNA (pNL4-3) was added at a final concentration of 10 ng/mL to 250 μL of the reduced serum medium Opti-MEM I (GIBCO™, USA). Separately, 4 μL of Lipofectamine™ 2000 (Invitrogen, USA) was mixed with 250 μL of Opti-MEM I (GIBCO™), and incubated at room temperature for 5 min. The DNA (pNL4-3) was mixed at a ratio of 1:2 with the lipofectamine and reacted at room temperature for 20 min to form a DNA-lipofectamine complex. After removal of the medium from the cell culture, the mixture containing the DNA-lipofectamine complex was added to the cells and incubated for 4 hrs in a CO2 incubator. Then, the cell culture medium was replaced with a fresh antibiotic-free, 10% FBS-supplemented DMEM, followed by incubation for an additional 48 hrs. The HIV-infected cell culture was centrifuged at 1,500 rpm for 5 min to give a virus supernatant.
MT-4 cells were plated at a density of 1.0×10^6 cells/mL into 6-well plates containing RPMI supplemented with 10% FBS and incubated for 4 hrs before infection at a ratio of 1:1 with the virus supernatant. The cells were incubated for 48 hrs in a CO2 incubator, after which the culture medium was replaced with a fresh one. Again, incubation was continued for an additional 72 hrs to amplify the virus. After centrifugation at 1,500 rpm for 5 min, the virus supernatant thus obtained was examined for virus density using a Virononstika HIV-1 Antigen Microelisa system kit (bioMerieux, Inc. Netherland).
2. Assay for Inhibitory Activity Against HIV
The rhodanine derivatives prepared in Examples 1 to 38 were dissolved in DMSO to prepare respective 10 mM or 20 mM stocks, and stored at −20° C. The stocks were diluted to a starting concentration of 200 μM in DMSO before use in experiments.
MT-4 cells were suspended at a density of 4×10^5 cells in 200 μL of RPMI 1640 (Gibco, 10% FBS) per well of 24-well plates, and infected with 200 μL of a virus supernatant containing 2×10^5 pg/mL to give a total volume of 400 μL. After the stocks of the rhodanine derivatives were […] diluted to 200 μM in DMSO, 2 μL of each dilution was added to the cells to a final concentration of 1 μM or less. For a positive control, 10 μM AZT (azidothymidine, Sigma, USA) was used at a final concentration of 50 nM while DMSO was used at a final concentration of 0.5% as a negative control. The cells were cultured for 48 hrs in a CO2 incubator (37° C., 5% CO2), and the culture medium was replaced by RPMI 1640 containing the rhodanine derivative at a final concentration of 1 μM, followed by incubation for an additional 48 hrs. Virus soups were separated from cells by centrifugation at 1,500 rpm for 5 min and then at 13, 000 rpm for 5 min. ELISA for p24 concentrations was carried out using a Virononstika HIV-1 Antigen Microelisa system kit (bioMerieux, Inc. Netherland) to determine the inhibitory activity of each of the rhodanine derivatives against HIV.
(In general: An ELISA detects its analyte on a solid surface through an enzyme-linked reagent.)
Regarding `Cc1ccc(N2C(=O)/C(=C/c3ccc(-c4cccc([N+](=O)[O-])c4)o3)SC2=S)c(C)c1` [Example 1, 3-(2,4-Dimethyl-phenyl)-5-[5-(3-nitro-phenyl)-furan-2-ylmethylene]-2-thioxo-thiazolidin-4-one], the IC50 was 0.8 µM.

As to `CC(=O)CCN1C(=O)/C(=C/c2ccc(-c3ccc(Br)cc3)o2)SC1=S` [Example 5, 5-[5-(4-bromo-phenyl)-furan-2-ylmethylene]-3-(3-oxo-butyl)-2-thioxo-thiazolidin-4-one], the IC50 was 1 µM.

Turning to `O=C1/C(=C/c2ccc(-c3ccc(Cl)cc3Cl)o2)SC(=S)N1c1cccc(F)c1` [Example 8, 5-[5-(2,4-dichloro-phenyl)-furan-2-ylmethylene]-3-(3-fluoro-phenyl)-2-thioxo-thiazolidin-4-one], the IC50 worked out at 0.5 µM.

Turning to `O=C1C(=Cc2ccc(-c3ccc([N+](=O)[O-])cc3)o2)SC(=S)N1c1cccc(F)c1` [Example 13, 3-(3-fluoro-phenyl)-5-[5-(4-nitro-phenyl)-furan-2-ylmethylene]-2-thioxo-thiazolidin-4-one], the half-maximal inhibitory concentration (IC50) worked out at 0.5 µM.

For the molecule `O=C1C(=Cc2ccc(-c3cc([N+](=O)[O-])ccc3Br)o2)SC(=S)N1c1ccc(I)cc1` [Example 16, 5-[5-(2-bromo-5-nitro-phenyl)-furan-2-ylmethylene]-3-(4-iodo-phenyl)-2-thioxo-thiazolidin-4-one], the 50% inhibitory concentration (IC50) was 0.5 µM.

For the molecule `COc1ccc(-c2ccc(/C=C3\SC(=S)N(CC(=O)O)C3=O)o2)c([N+](=O)[O-])c1` [Example 21, {5-[5-(4-methoxy-2-nitro-phenyl)-furan-2-ylmethylene]-4-oxo-2-thioxo-thiazolidin-3-yl}-acetic acid], the concentration for half-maximal inhibition (IC50) amounted to 1 µM.

As for `CC(C)OC(=O)c1ccc(-c2ccc(/C=C3/SC(=S)NC3=O)o2)cc1` [Example 23, 4-[5-(4-oxo-2-thioxo-thiazolidin-5-ylidenemethyl)-furan-2-yl]-benzoic acid isopropylester], the IC50 is 0.4 µM.

For `CCCOC(=O)c1cc(-c2ccc(/C=C3/SC(=S)NC3=O)o2)ccc1Cl` [Example 29, 2-chloro-5-[5-(4-oxo-2-thioxo-thiazolidin-5-ylidenemethyl)-furan-2-yl]-benzoic acid propyl ester], the IC50 was determined as 0.5 µM.

As for `O=C(O)CN1C(=O)/C(=C/c2ccc(-c3cccc([N+](=O)[O-])c3)o2)SC1=S` [Example 38, {5-[5-(3-nitro-phenyl)-furan-2-ylmethylene]-4-oxo-2-thioxo-thiazolidin-3-yl}-acetic acid], the IC50 came out at 0.75 µM.

Broadly, the IC50 is the point on the concentration scale where inhibition reaches its midpoint.
